Experimental data reported in publication PMC10934024, “Protein–Ligand Binding and Structural Modelling Studies of Pheromone-Binding Protein-like Sol g 2.1 from Solenopsis geminata Fire Ant Venom” (Molecules, 2024).

How the values were obtained:
[1] = target: T1, rSol g 2.1 protein (Solenopsis geminata, UniProt A0A9E7V488); experiment: Fluorescence competitive binding assay (NPN displacement); settings: 2 µM rSol g 2.1 with 4 µM NPN, ligand 0-4 µM, 50 mM Tris-HCl pH 7.4
T1 sequence (A0A9E7V488 1-119): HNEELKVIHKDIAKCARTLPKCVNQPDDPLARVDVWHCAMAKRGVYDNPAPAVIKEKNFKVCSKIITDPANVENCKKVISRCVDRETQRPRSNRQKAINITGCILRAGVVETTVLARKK
Method: The binding of the endogenous ligands, including decane, undecane dodecane, and tridecane, to rSol g 2.1 protein was measured by a competitive binding assay. In this procedure, 1 mL of rSol g 2.1 protein (2 µM) in 50 mM Tris-HCl (pH 7.4) containing NPN (4 µM) was titrated with each ligand (1 mM in methanol stock) to the final concentrations of 0, 0.125, 0.375, 0.625, 0.875, 1.125, 2, 3, and 4 µM. Additionally, the same concentrations of the blended ligands, which consisted of decane (45%), undecane (36%), dodecane (15%), and tridecane (4%), were used to investigate the blend effect of Sol g 2.1 protein. The resulting isotherms were fitted (GraphPad Prism 9) to both a one-site model and an allosteric model.

[2] = test system: Sol i 2; settings: cited from earlier work
[3] = target: T1, rSol g 2.1 protein; experiment: Fluorescence binding assay, NPN titration into rSol g 2.1
Method: The fluorescence binding assay of rSol g 2.1 protein was conducted using the fluorescent probe N-phenyl-1-naphtylamine (NPN). […] The fluorescence intensity was measured on a PTI QuantaMaster fluorometer (Horiba Ltd., Kyoto, Japan) with a 337 nm excitation wavelength and emission scan ranging from 300–500 nm at room temperature in triplicate. To obtain the equilibrium dissociation (Kd) value, the fluorescence intensity at the maximal emission wavelength 400 nm was plotted for each NPN concentration. Data were fitted to a specific allosteric binding model using GraphPad Prism Version 9.0 (GraphPad Software, San Diego, CA, USA). Y = Bmax × X^h/(Kd^h + X^h) was used as an equation in the fitting model, where Bmax is the maximal specific binding in the same unit as Y, X is the NPN concentration (µM), and Y is the fluorescence intensity counts/second. Moreover, h is the Hill slope, which is 1.0 for cases with one site. If there is more than one binding site per protein and there is cooperativity, then h > 1.0, and the graph takes on a sigmoidal appearance.

Compound	Kd [1] [nM]	binding affinity [2]	Kd ([3]; 2 µM rSol g 2.1, 50 mM Tris-HCl pH 7.4, NPN 0-12 µM, emission 400 nm, specific binding with Hill slope model) [nM]	h slope (Hill slope) ([3]; same fit as Kd of NPN)
CCCCCCCCCCCCC [tridecane, Tridecane]	380	–	–	–
CCCCCCCCCC [decane, Decane]	320	high binding affinity	–	–
c1ccc(Nc2cccc3ccccc23)cc1 [NPN, N-phenyl-1-naphtylamine]	–	–	1900 ± 80	1.64 ± 0.12
C=CC(=C)CC/C=C(\C)CCC=C(C)C [(E)-β-farnesene]	–	high binding affinity	–	–
CCCCCCCCCCCC [dodecane, Dodecane]	390	–	–	–
CCCCCCCCCCC [undecane, Undecane]	330	high binding affinity	–	–
